Measured values: patent US9271978B2 (Zenith Epigenetics Corp., priority 2012, dated 2016)

Experiments:
[1] = biological target: T1, Brd4 bromodomain 1 (BRD4(1)) (Homo sapiens, UniProt O60885); assay: Inhibition of tetra-acetylated histone H4 binding to Brd4 bromodomain 1 (TR-FRET); parameters: key: Active: Compounds with an IC50 value less than 30 μM were deemed to be active.; Not Active: Compounds with an IC50 value less than 30 μM were deemed to be active; details: tetra-acetylated histone H4 peptide, active = IC50 <30 μM
T1 construct: Illustrative results with the first bromodomain of Brd4; made in house; host or cells: E. coli BL21 (DE3)
In short: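 N-terminally His-tagged bromodomains (200 nM), expressed in E. coli, were incubated with biotinylated tetra-acetylated histone H4 peptide (25-50 nM), Eu-cryptate streptavidin and XL665 anti-His antibody in HEPES pH 7.4 buffer with KF, 0.2% DMSO, 2 h at room temperature. Inhibition read as decreased 665/620 nm TR-FRET; IC50 from dose-response curves.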

[2] = test system: c-myc; assay: Inhibition of c-myc expression in MV4-11 cells (mRNA, real-time PCR); assay type: cell-based; parameters: key: Active: Compounds with an IC50 value less than 30 μM were deemed to be active.; Not Active: Compounds with an IC50 value less than 30 μM were deemed to be active; details: Human AML MV4-11 cells, 3 h incubation
In short: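 MV4-11 cells (2.5×10^4) treated with compound or 0.1% DMSO for 3 h at 37 °C. c-myc mRNA measured by RT real-time PCR duplexed with cyclophilin. IC50 from dose–response curve.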

[3] = test system: ApoA-I mRNA; assay: Up-regulation of hApoA-1 mRNA transcription in Huh7 cells; assay type: cell-based, human; parameters: key: Active: Compounds with an EC170 value less than 30 μM were deemed to be active; details: 48 h treatment, ApoA-I mRNA by real-time PCR, Active = EC170 less than 30 μM
In short: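 Huh7 cells treated with compound for 48 h. ApoA-I mRNA was then quantified in captured mRNA by one-step real-time RT-PCR. Fold induction calculated from Ct values relative to the matching DMSO control; EC170 is the concentration for 170% of control expression.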

[4] = test system: hIL-6 mRNA; assay: Inhibition of hIL-6 mRNA transcription in U937 cells; assay type: cell-based, human; parameters: key: Active: Compounds with an IC50 value less than 30 μM were deemed to be active.; Not Active: Compounds with an IC50 value less than 30 μM were deemed to be active; details: LPS stimulation, active = IC50 <30 μM
In short: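 U937 cells differentiated 3 days with 60 ng/mL PMA, pretreated 1 h with compound, then stimulated with 1 ug/mL E. coli LPS for 3 h at 37° C. hIL-6 mRNA quantified by one-step qRT-PCR, Ct normalized to internal control, expressed as fold induction relative to control.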

Cc1noc(C)c1-c1cc(N)c(=O)n(Cc2ccsc2)c1 [Example 219, 3-amino-5-(3,5-dimethylisoxazol-4-yl)-1-(thiophen-3-ylmethyl)pyridin-2(1H)-one]
Active: FRET activity (IC50 <30 μM) BRD4(1) [1] | c-myc activity (IC50 <30 μM) [2] | ApoA-1 activity (EC170 <30 μM) [3] | IL-6 activity (IC50 <30 μM) [4]

Cc1noc(C)c1-c1cc(N)c(=O)n(Cc2ccc(F)cc2)c1 [Example 180, 3-amino-5-(3,5-dimethylisoxazol-4-yl)-1-(4-fluorobenzyl)pyridin-2(1H)-one]
Active: FRET activity (IC50 <30 μM) BRD4(1) [1] | c-myc activity (IC50 <30 μM) [2] | ApoA-1 activity (EC170 <30 μM) [3] | IL-6 activity (IC50 <30 μM) [4]

Cc1noc(C)c1-c1cc(N)c(=O)n(Cc2ccc(Br)cc2)c1 [Example 241, 3-Amino-1-(4-bromobenzyl)-5-(3,5-dimethylisoxazol-4-yl)pyridin-2(1H)-one]
Active: FRET activity (IC50 <30 μM) BRD4(1) [1] | c-myc activity (IC50 <30 μM) [2] | ApoA-1 activity (EC170 <30 μM) [3] | IL-6 activity (IC50 <30 μM) [4]

Cc1noc(C)c1-c1ccc(=O)n(Cc2ccccc2)c1 [Example 56, 1-Benzyl-5-(3,5-dimethylisoxazol-4-yl)pyridin-2(1H)-one]
Active: FRET activity (IC50 <30 μM) BRD4(1) [1] | c-myc activity (IC50 <30 μM) [2] | ApoA-1 activity (EC170 <30 μM) [3] | IL-6 activity (IC50 <30 μM) [4]

Cc1noc(C)c1-c1ccc(=O)n(Cc2ccc(Cl)cc2)c1 [Example 128, 1-(4-Chlorobenzyl)-5-(3,5-dimethylisoxazol-4-yl)pyridin-2(1H)-one]
Active: FRET activity (IC50 <30 μM) BRD4(1) [1] | c-myc activity (IC50 <30 μM) [2] | ApoA-1 activity (EC170 <30 μM) [3] | IL-6 activity (IC50 <30 μM) [4]

Cc1noc(C)c1-c1ccc(=O)n([C@H](C)c2ccccc2)c1 [Example 134, (R)-5-(3,5-Dimethylisoxazol-4-yl)-1-(1-phenylethyl)pyridin-2(1H)-one]
Active: FRET activity (IC50 <30 μM) BRD4(1) [1] | c-myc activity (IC50 <30 μM) [2] | ApoA-1 activity (EC170 <30 μM) [3] | IL-6 activity (IC50 <30 μM) [4]

Cc1noc(C)c1-c1cc(N)c(=O)n(Cc2ccccc2)c1 [Example 73, 3-Amino-1-benzyl-5-(3,5-dimethylisoxazol-4-yl)pyridin-2(1H)-one]
Active: FRET activity (IC50 <30 μM) BRD4(1) [1] | c-myc activity (IC50 <30 μM) [2] | ApoA-1 activity (EC170 <30 μM) [3] | IL-6 activity (IC50 <30 μM) [4]
